Conditions: 303.15 K, Liquid, Vibrating tube method

FC(C(F)(F)F)C(F)(F)F [1,1,1,2,3,3,3-heptafluoropropane]
Conditions	mass density [kg/m3]
5013 kPa	1401.5
5035 kPa	1401.8
5060 kPa	1401.7
5082 kPa	1402.2
5116 kPa	1402.4
5146 kPa	1402.4
5172 kPa	1402.6
5194 kPa	1402.8
5221 kPa	1403
5239 kPa	1403
5261 kPa	1403.2
5286 kPa	1403.5
5308 kPa	1403.6
5335 kPa	1403.7
5356 kPa	1403.9
5379 kPa	1404
5405 kPa	1404.1
5427 kPa	1404.4
5457 kPa	1404.7
5479 kPa	1404.8
5509 kPa	1405
5546 kPa	1405.2
5568 kPa	1405.3
5609 kPa	1405.6
5635 kPa	1405.8
5654 kPa	1405.9
5688 kPa	1406.2
5715 kPa	1406.3
5738 kPa	1406.4
5768 kPa	1406.6
5795 kPa	1406.8
5829 kPa	1407.1
5856 kPa	1407.3
5879 kPa	1407.3
5906 kPa	1407.7
5934 kPa	1407.9
5957 kPa	1408
5980 kPa	1408.2
6003 kPa	1408.2
6033 kPa	1408.4
6056 kPa	1408.6
6080 kPa	1408.8
6108 kPa	1408.9
6135 kPa	1409
6167 kPa	1409.2
6186 kPa	1409.4
6217 kPa	1409.6
6240 kPa	1409.7
6272 kPa	1409.9
6300 kPa	1410.1
6332 kPa	1410.3
6356 kPa	1410.5
6382 kPa	1410.7
6413 kPa	1410.8
6441 kPa	1411.1
6469 kPa	1411.1
6493 kPa	1411.3
6529 kPa	1411.6
6556 kPa	1411.7
6581 kPa	1411.9
6617 kPa	1412.2
6647 kPa	1412.4
6675 kPa	1412.6
6699 kPa	1412.7
6720 kPa	1412.9
6744 kPa	1413.1
6772 kPa	1413.3
6796 kPa	1413.4
6820 kPa	1413.5
6845 kPa	1413.6
6881 kPa	1414
6909 kPa	1414.1
6937 kPa	1414.3
6974 kPa	1414.4
7006 kPa	1414.7
7030 kPa	1414.8
7056 kPa	1415
7077 kPa	1415.1
7110 kPa	1415.2
7138 kPa	1415.5
7171 kPa	1415.7
7192 kPa	1415.8
7216 kPa	1416
7441 kPa	1417.3
7474 kPa	1417.5
7507 kPa	1417.7
7536 kPa	1417.9
7570 kPa	1418.2
7599 kPa	1418.3
7628 kPa	1418.5
7669 kPa	1418.7
7702 kPa	1418.8
7727 kPa	1419
7762 kPa	1419.2
7795 kPa	1419.4
7821 kPa	1419.5
7850 kPa	1419.8
7879 kPa	1420
7912 kPa	1420.3
7941 kPa	1420.4
7970 kPa	1420.6
8008 kPa	1420.7
8033 kPa	1421

Reference: the NIST ThermoML archive (doi:10.1021/je700260f)
